This is an account of results in patent US10829501B2 (BRISTOL-MYERS SQUIBB COMPANY, priority 2016, dated 2020).

For the experiment, the target named is ROCK2 (Homo sapiens, UniProt O75116). Nature of the experiment: ROCK2 kinase inhibition assay (LABCHIP 3000 Reader, FITC peptide substrate).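 Further: rho kinase reaction read by separating phosphorylated from unphosphorylated peptide on chip, with inhibition of kinase activity computed per concentration across a dose-response series.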
Setting [1] is: read-out: ROCK2 Activity (ROCK2 IC50), 5 μM ATP, 1.5 μM peptide substrate, pH 7.5.

Counter-ions that a name gives are not always drawn. Like-named read-outs stand apart in the source and are kept apart here.

Sequence of ROCK2 (O75116 whole entry, species assumed): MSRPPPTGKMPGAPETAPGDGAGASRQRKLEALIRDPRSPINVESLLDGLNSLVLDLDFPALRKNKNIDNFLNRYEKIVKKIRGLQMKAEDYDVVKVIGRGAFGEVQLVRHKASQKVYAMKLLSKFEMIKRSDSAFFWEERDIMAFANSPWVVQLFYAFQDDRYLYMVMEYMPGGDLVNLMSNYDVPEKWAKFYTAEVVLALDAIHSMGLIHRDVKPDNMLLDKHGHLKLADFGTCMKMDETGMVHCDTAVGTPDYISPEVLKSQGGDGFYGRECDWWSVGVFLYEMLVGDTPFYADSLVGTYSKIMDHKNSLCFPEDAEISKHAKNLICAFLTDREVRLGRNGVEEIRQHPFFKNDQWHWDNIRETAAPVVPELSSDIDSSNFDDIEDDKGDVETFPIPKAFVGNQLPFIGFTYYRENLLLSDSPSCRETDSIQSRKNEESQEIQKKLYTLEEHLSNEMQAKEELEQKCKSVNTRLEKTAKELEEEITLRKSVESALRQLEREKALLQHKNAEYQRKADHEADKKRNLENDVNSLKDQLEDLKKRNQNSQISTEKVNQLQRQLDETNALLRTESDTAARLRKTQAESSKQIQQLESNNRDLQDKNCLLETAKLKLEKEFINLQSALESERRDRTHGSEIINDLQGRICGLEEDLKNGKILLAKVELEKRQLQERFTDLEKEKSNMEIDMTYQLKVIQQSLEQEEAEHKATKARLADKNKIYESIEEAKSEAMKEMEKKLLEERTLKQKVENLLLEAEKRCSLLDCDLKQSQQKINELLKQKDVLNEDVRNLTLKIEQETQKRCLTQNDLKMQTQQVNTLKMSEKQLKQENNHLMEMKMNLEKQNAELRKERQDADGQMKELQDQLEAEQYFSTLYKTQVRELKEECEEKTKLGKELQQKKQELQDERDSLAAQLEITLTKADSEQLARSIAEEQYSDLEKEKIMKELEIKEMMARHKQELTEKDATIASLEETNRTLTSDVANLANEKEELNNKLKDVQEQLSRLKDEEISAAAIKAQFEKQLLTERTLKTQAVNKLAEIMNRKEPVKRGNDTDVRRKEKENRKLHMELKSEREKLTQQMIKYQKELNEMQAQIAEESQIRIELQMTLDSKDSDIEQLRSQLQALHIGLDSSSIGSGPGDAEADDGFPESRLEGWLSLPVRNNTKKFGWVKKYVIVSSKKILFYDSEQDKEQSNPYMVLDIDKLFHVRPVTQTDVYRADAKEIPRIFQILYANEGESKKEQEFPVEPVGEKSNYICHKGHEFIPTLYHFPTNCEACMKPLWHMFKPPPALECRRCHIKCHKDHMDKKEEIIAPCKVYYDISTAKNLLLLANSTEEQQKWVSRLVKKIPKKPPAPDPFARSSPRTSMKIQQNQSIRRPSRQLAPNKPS

On to `Cn1cc(-c2ccc3c(C(=O)N[C@H]4CC5(C4)C[C@H](Oc4ncccc4C(N)=O)C5)nnn3c2)cn1` (stereo partly drawn) [Example 367, N-((aR)-6-((3-carbamoylpyridin-2-yl)oxy)spiro[3.3]heptan-2-yl)-6-(1-methyl-1H-pyrazol-4-yl)-[1,2,3]triazolo[1,5-a]pyridine-3-carboxamide], for which the IC50 was < 5 nM.
Still for that read-out and setting: with `[H][C@]1(Oc2ncccc2C(N)=O)C[C@@]2(C[C@H](NC(=O)c3nnn4cc(Br)ccc34)C2)C1` (stereo partly drawn) [Example 368, 6-bromo-N-((aR)-6-((3-carbamoylpyridin-2-yl)oxy)spiro[3.3]heptan-2-yl)-[1,2,3]triazolo[1,5-a]pyridine-3-carboxamide] the figure was 5 to 50 nM; with `[H][C@]1(Oc2ncccc2C(N)=O)C[C@@]2(C[C@H](NC(=O)c3nnn4cc(N5CCOCC5)ccc34)C2)C1` (stereo partly drawn) [Example 369, N-((aR)-6-((3-carbamoylpyridin-2-yl)oxy)spiro[3.3]heptan-2-yl)-6-morpholino-[1,2,3]triazolo[1,5-a]pyridine-3-carboxamide], 250 to 2500 nM; with `[H][C@]1(Oc2ncccc2C(N)=O)C[C@@]2(C[C@H](NC(=O)c3cnc4cc(-c5ccc(=O)n(C)c5)ccn34)C2)C1` (stereo partly drawn) [Example 370, N-((aR)-6-((3-carbamoylpyridin-2-yl)oxy)spiro[3.3]heptan-2-yl)-7-(1-methyl-6-oxo-1,6-dihydropyridin-3-yl)imidazo[1,2-a]pyridine-3-carboxamide], < 5 nM.
On the same count and under the same terms, the value for `[H][C@]1(Oc2ncccc2C(N)=O)C[C@@]2(C[C@H](NC(=O)c3cnn4cc(-c5ccc(=O)n(C)c5)ccc34)C2)C1` (stereo partly drawn) [Example 371, N-((aR)-6-((3-carbamoylpyridin-2-yl)oxy)spiro[3.3]heptan-2-yl)-6-(1-methyl-6-oxo-1,6-dihydropyridin-3-yl)pyrazolo[1,5-a]pyridine-3-carboxamide] was 5 to 50 nM; that for `[H][C@]1(Oc2ncccc2C(N)=O)C[C@@]2(C[C@H](NC(=O)c3nn(C(F)F)c4cc(N5CCOCC5)ccc34)C2)C1` (stereo partly drawn) [Example 372, N-((aR)-6-((3-carbamoylpyridin-2-yl)oxy)spiro[3.3]heptan-2-yl)-1-(difluoromethyl)-6-morpholino-1H-indazole-3-carboxamide] was < 5 nM; that for `[H][C@]1(Oc2ncccc2C(N)=O)C[C@@]2(C[C@H](NC(=O)c3nnn4c(Cl)c(OCc5ccccc5)ccc34)C2)C1` (stereo partly drawn) [Example 373, 6-(benzyloxy)-N-((aR)-6-((3-carbamoylpyridin-2-yl)oxy)spiro[3.3]heptan-2-yl)-7-chloro-[1,2,3]triazolo[1,5-a]pyridine-3-carboxamide] was 250 to 2500 nM.
For the molecule `[H][C@]1(Oc2ncccc2C(N)=O)C[C@@]2(C[C@H](NC(=O)c3nnn4c(C5CC5)c(OCc5ccccc5)ccc34)C2)C1` (stereo partly drawn) [Example 374, 6-(benzyloxy)-N-((aR)-6-((3-carbamoylpyridin-2-yl)oxy)spiro[3.3]heptan-2-yl)-7-cyclopropyl-[1,2,3]triazolo[1,5-a]pyridine-3-carboxamide], the IC50 is 50 to 250 nM.
The same measure, in the same setting: with `[H][C@]1(Oc2ncccc2C(N)=O)C[C@@]2(C[C@H](NC(=O)c3nnn4cc(OCC(C)(C)O)ccc34)C2)C1` (stereo partly drawn) [Example 375, N-((aR)-6-((3-carbamoylpyridin-2-yl)oxy)spiro[3.3]heptan-2-yl)-6-(2-hydroxy-2-methylpropoxy)-[1,2,3]triazolo[1,5-a]pyridine-3-carboxamide] the figure was 50 to 250 nM; with `[H][C@]1(Oc2ncccc2C(N)=O)C[C@@]2(C[C@H](NC(=O)c3cc(C4CC4)n4c(Cl)c(OCc5ccccc5)ccc34)C2)C1` (stereo partly drawn) [Example 376, 6-(benzyloxy)-N-((aR)-6-((3-carbamoylpyridin-2-yl)oxy)spiro[3.3]heptan-2-yl)-5-chloro-3-cyclopropylindolizine-1-carboxamide], 5 to 50 nM.
Still for that read-out and setting: the value for `[H][C@]1(Oc2ncccc2C(N)=O)C[C@@]2(C[C@H](NC(=O)c3cnn(-c4ccc(Br)cc4)c3C)C2)C1` (some centres unmarked) [Example 377] was 5 to 50 nM.
`[H][C@]1(Oc2ncccc2C(N)=O)C[C@@]2(C[C@H](NC(=O)c3cnn(-c4ccc(N5CCOCC5)cc4)c3C)C2)C1` (some centres unmarked) [Example 378] returned an IC50 of 50 to 250 nM.
The molecule `[H][C@]1(Oc2ncccc2C(N)=O)C[C@@]2(C[C@H](NC(=O)c3cnn(-c4ccccc4)c3C)C2)C1` (some centres unmarked) [Example 379] gave an IC50 of 50 to 250 nM.
Regarding `COc1ccc2c(c1)CCc1c(C(=O)NC3CC4(C3)CC(Oc3ncccc3C(N)=O)C4)nn(C)c1-2` [Example 380, N-((aR)-6-((3-carbamoylpyridin-2-yl)oxy)spiro[3.3]heptan-2-yl)-7-methoxy-1-methyl-4,5-dihydro-1H-benzo[g]indazole-3-carboxamide], the IC50 under setting [1] is 5 to 50 nM.
Still for that read-out and setting: the value for `COc1ccc2c(c1)CCc1c-2nn(C)c1C(=O)NC1CC2(C1)CC(Oc1ncccc1C(N)=O)C2` [Example 381, N-((aR)-6-((3-carbamoylpyridin-2-yl)oxy)spiro[3.3]heptan-2-yl)-7-methoxy-2-methyl-4,5-dihydro-2H-benzo[g]indazole-3-carboxamide] was 250 to 2500 nM.
With `Cc1nn(Cc2ccc(F)cc2)cc1C(=O)NC1CC2(C1)CC(Oc1ncccc1C(N)=O)C2` [Example 382, N-[(aR)2-[(6-{1-[(4-fluorophenyl)methyl]-3-methyl-1H-pyrazole-4-amido}spiro[3.3]heptan-2-yl)oxy]pyridine-3-carboxamide 1 trifluoroacetic acid salt], the IC50 under setting [1] is 5 to 50 nM.
For `Cc1c(C(=O)N[C@H]2CC3(C2)C[C@H](Oc2ncccc2C(N)=O)C3)cnn1Cc1ccc(F)cc1` (stereo partly drawn) [Example 383, N-[(aR)2-[(6-{1-[(4-fluorophenyl)methyl]-5-methyl-1H-pyrazole-4-amido}spiro[3.3]heptan-2-yl)oxy]pyridine-3-carboxamide 1 trifluoroacetic acid salt], the IC50 under setting [1] was 5 to 50 nM.
Still for that read-out and setting: the value for `Cc1c(C(=O)NC2CC3(C2)CC(Oc2ncccc2C(N)=O)C3)cnn1-c1ccc(Cl)cc1` [Example 384, N-[(aR)2-({6-[1-(4-chlorophenyl)-5-methyl-1H-pyrazole-4-amido]spiro[3.3]heptan-2-yl}oxy)pyridine-3-carboxamid 1 trifluoroacetic acid salt] was 5 to 50 nM; that for `Cc1c(C(=O)NC2CC3(C2)CC(Oc2ncccc2C(N)=O)C3)cnn1-c1ccc(C#N)cc1` [Example 385, N-[(aR)2-({6-[1-(4-cyanophenyl)-5-methyl-1H-pyrazole-4-amido]spiro[3.3]heplan-2-yl}oxy)pyridine-3-carboxamide1 trifluoroacetic acid salt] was 5 to 50 nM; that for `Cc1c(C(=O)NC2CC3(C2)CC(Oc2ncccc2C(N)=O)C3)cnn1-c1ccc(OC(F)(F)F)cc1` [Example 386, N-[(aR)2-[(6-{5-methyl-1-[4-(trifluoromethoxy)phenyl]-1H-pyrazole-4-amido}spiro[3.3]heptan-2-yl)oxy]pyridine-3-carboxamide 1 trifluoroacetic acid salt] was 5 to 50 nM.
As to `Cc1c(C(=O)NC2CC3(C2)CC(Oc2ncccc2C(N)=O)C3)cnn1-c1ccc(S(C)(=O)=O)cc1` [Example 387, N-[(aR)2-({6-[1-(4-methanesulfonylphenyl)-5-methyl-1H-pyrazole-4-amido]spiro[3.3]heptan-2-yl}oxy)pyridine-3-carboxamide 1 trifluoroacetic acid salt], the IC50 under setting [1] lay within 5 to 50 nM.
For the molecule `Cc1c(C(=O)N[C@H]2CC3(C2)C[C@H](Oc2ncccc2C(N)=O)C3)cnn1-c1ccc(C#N)cc1F` (stereo partly drawn) [Example 388, N-[(aR)2-({6-[1-(4-cyano-2-fluorophenyl)-5-methyl-1H-pyrazole-4-amido]spiro[3.3]heptan-2-yl}oxy)pyridine-3-carboxamide 1 trifluoroacetic acid salt], the IC50 under setting [1] fell in the range of 50 to 250 nM.
With `NC(=O)c1cccnc1OC1CC2(CC(NC(=O)c3cn(-c4ccccc4)nn3)C2)C1` [Example 389, N-[(aR)2-({6-(1-phenyl-1H-1,2,3-triazole)-4-carboxamido]spiro[3.3]heptan-2-yl}oxy)nicotinamide], the IC50 fell in the range of 50 to 250 nM.
Still for that read-out and setting: with `NC(=O)c1cccnc1OC1CC2(CC(NC(=O)c3c[nH]c(-c4ccccc4)n3)C2)C1` [Example 390, N-[(aR)2-({6-(2-phenyl-1H-imidazole)-4-carboxamido]spiro[3.3]heptan-2-yl}oxy)nicotinamide] the figure was 250 to 2500 nM; with `Cc1c(C(=O)NC2CC3(C2)CC(Oc2ncccc2C(N)=O)C3)cnn1-c1ccc(C#N)c(F)c1` (centres unmarked) [Example 391], 50 to 250 nM.
With `Cc1nc(C(=O)NC2CC3(C2)CC(Oc2ncccc2C(N)=O)C3)c(C)n1-c1ccccc1` (centres unmarked) [Example 392], the IC50 lay within 50 to 250 nM.
As for `NC(=O)c1cccnc1OC1CC2(CC(NC(=O)c3cnn(-c4cccc(Cl)c4F)c3)C2)C1` (centres unmarked) [Example 393], the half-maximal inhibitory concentration (IC50) was 5 to 50 nM.
`NC(=O)c1cccnc1OC1CC2(CC(NC(=O)c3cnn(-c4cccc(Cl)c4)c3)C2)C1` (centres unmarked) [Example 394] displayed an IC50 of 5 to 50 nM.
The same measure, in the same setting: with `COc1cccc(-n2cc(C(=O)NC3CC4(C3)CC(Oc3ncccc3C(N)=O)C4)cn2)c1` (centres unmarked) [Example 395] the figure was 5 to 50 nM; with `Cn1nc(C(=O)NC2CC3(C2)CC(Oc2ncccc2C(N)=O)C3)cc1-c1ccccc1` (centres unmarked) [Example 396], 5 to 50 nM; with `NC(=O)c1cccnc1OC1CC2(CC(NC(=O)c3cnn(-c4ccccc4Cl)c3)C2)C1` (centres unmarked) [Example 397], 5 to 50 nM.
The same measure, in the same setting: with `COc1ccccc1-n1cc(C(=O)NC2CC3(C2)CC(Oc2ncccc2C(N)=O)C3)cn1` (centres unmarked) [Example 398] the figure was 5 to 50 nM; with `Cc1c(C(=O)NC2CC3(C2)CC(Oc2ncccc2C(N)=O)C3)cnn1-c1cccc(C#N)c1` (centres unmarked) [Example 399], 50 to 250 nM.
For the molecule `COc1ccc(-n2ncc(C(=O)N[C@H]3CC4(C3)C[C@H](Oc3ncccc3C(N)=O)C4)c2C)cn1` (some centres unmarked) [Example 400], the IC50 under setting [1] was in the range of 5 to 50 nM.
In the case of `CC(C)(C#N)n1nc(C(=O)NC2CC3(C2)CC(Oc2ncccc2C(N)=O)C3)c2ccc(F)cc21` [Example 401, N-((aR)-6-((3-carbamoylpyridin-2-yl)oxy)spiro[3.3]heptan-2-yl)-1-(2-cyanopropan-2-yl)-6-fluoro-1H-indazole-3-carboxamide, TFA], the IC50 under setting [1] was < 5 nM.
